From article PMC8097418, “In Vitro and In Vivo Antibacterial Activities of a Novel Quinolone Compound, OPS-2071, against Clostridioides difficile” (Antimicrobial Agents and Chemotherapy, 2021)
pIC50: −log10 of the molar value. ≈ marks a conversion by molar mass, not a printed value. Like-named read-outs stand apart in the source and are kept apart here.

Experiments:
C. difficile ATCC 700057 [1] = assay: Mutant prevention concentration; type: cell-based, Clostridioides difficile; conditions: approximately 10^10 CFU, 3 days
Method: The mutant prevention concentration was measured by plating approximately 10^10 CFU of C. difficile ATCC 700057 onto a GAM agar plate containing the test agent. Inoculated plates were incubated for 3 days, and the MIC for each antibiotic that prevented the growth of colonies was determined using the agar dilution method as described by the CLSI ([41]). The MIC values of grown colonies were compared to determine which bacteria were resistant. The MPC was defined as the lowest concentration that prevented the growth of resistant bacteria.

[2] = tested on: 54 clinically isolated C. difficile strains; assay: MIC by agar dilution against 54 clinically isolated strains; type: cell-based, Clostridioides difficile; conditions: for MIC90 / MIC50: Clostridioides difficile, 54 clinically isolated C. difficile strains; for MIC50: read-out: MIC50
Method: (§1) MICs obtained using the agar dilution method were determined visually as described for the CLSI method ([41], [42]). MICs obtained using the broth dilution method were determined visually based on the CLSI method except for using Gifu anaerobic medium (GAM) broth instead of supplemented Brucella broth ([41], [42]).

[3] = tested on: hypervirulent and nonhypervirulent strains of C. difficile (62 strains); assay: MIC distribution against 20 hypervirulent and 42 nonhypervirulent strains; type: cell-based, Clostridioides difficile; conditions: for MIC90 / MIC50: Clostridioides difficile
C. difficile ATCC 700057 [4] = assay: MIC by agar dilution (CLSI) against quality control strain; type: cell-based, Clostridioides difficile; conditions: Clostridioides difficile, read-out: MIC
Method: as §1

C. difficile ATCC 700057 [5] = assay: Postantibiotic effect (PAE); type: cell-based, Clostridioides difficile; conditions: for Postantibiotic effect: 1 h exposure
Method: C. difficile ATCC 700057 was cultured in GAM agar and adjusted in GAM broth to approximately 10^6 CFU/ml. The bacterial suspensions were preincubated at 37°C for 1 h. […] After preincubation, test and reference solutions were added to each bacterial suspension in a test tube, and the suspensions were cultured for 1 h. After exposure to the test compounds, bacterial suspensions were washed with GAM broth and cultured for 6 h. […] The PAE was defined according to Craig and Gudmundsson as PAE = T − C, where T is the time required for the viable counts of the exposed bacteria to increase by 1 log10 above the counts observed immediately after washing, and C is the corresponding time for the antibiotic unexposed controls ([44]).

[6] = plasma concentrations in the low nanogram per milliliter range or lower; cited from earlier work
[7] = tested on: 10 clinical isolates of C. difficile; assay: MIC (broth dilution) and MBC testing, 10 clinical isolates; type: cell-based, Clostridioides difficile; conditions: 10 clinical isolates
Method: In this test, MIC testing was performed using the broth dilution method as recommended in the CLSI ([41]). After the MICs were determined, 10 μl of the bacterial suspension from the MIC test tube was inoculated onto agar plates and incubated at 37°C. The bacterial colonies were then counted and bacterial numbers were calculated. The MBC was considered to be the lowest concentration of the antibiotics that prevented growth and reduced the inoculum by >99.9% within 48 h, irrespective of counts of survivors at higher antibiotic concentrations.

C. difficile ATCC 700057 [8] = assay: Effect of pH on MIC (agar dilution); type: cell-based, Clostridioides difficile; conditions: Clostridioides difficile
C. difficile ATCC 700057 [9] = assay: MIC by broth dilution (GAM broth); type: cell-based, Clostridioides difficile; conditions: Clostridioides difficile, read-out: MIC
Method: as §1

C. difficile ATCC 43255 [10] = assay: MIC against the infection strain; type: cell-based, Clostridioides difficile
C. difficile ATCC 43255 [11] = assay: In vivo hamster model of C. difficile infection; design: species or system golden Syrian hamsters
Method: C. difficile ATCC 43255 was cultured on GAM agar, and a bacterial suspension was prepared in saline ([26]). […] Hamsters were infected using oral gavage with 0.5 ml of suspension containing approximately 10^6 CFU of C. difficile (day −1). The next day, the animals were administered clindamycin phosphate (0.2 mg/ml in water) by oral gavage at a dose of 5 ml/kg of body weight, for a final dose of 1 mg/kg (day 0). The animals were allocated to the test groups using a stratified randomization method based on the body weight of each infected animal. The test compounds were administered by oral gavage once daily for 5 days (OPS-2071, 0.008 to 1 mg/kg; fidaxomicin, 0.04 mg/kg to 5 mg/kg; vancomycin, 0.04 to 5 mg/kg [5-fold dilution]). Infected control animals were administered 5% (wt/vol) gum arabic solution by oral gavage. […] The cecal contents of dead animals were tested for toxin A and toxin B using C.Diff Quik Chek Complete (Abbott Diagnostics Medical Co., Ltd., Tokyo, Japan) to confirm that the death of the animal was due to CDI.
The statistical significance of OPS-2071, fidaxomicin, and vancomycin treatment was analyzed at all doses against vehicle. Survival curves were estimated for each group using the Kaplan-Meier method. Differences in survival homogeneity in each group were evaluated with a log-rank test with Dunnett-type (two-sided) comparison.

C. difficile ATCC 700057 [12] = type: cell-based, Clostridioides difficile
[13] = target: DNA gyrase of C. difficile (Clostridioides difficile, UniProt Q18C89+Q18C90); assay: biochemical
[14] = nonhypervirulent strains (n = 42)

Sequence of DNA gyrase of C. difficile (Q18C90 entry or part of it): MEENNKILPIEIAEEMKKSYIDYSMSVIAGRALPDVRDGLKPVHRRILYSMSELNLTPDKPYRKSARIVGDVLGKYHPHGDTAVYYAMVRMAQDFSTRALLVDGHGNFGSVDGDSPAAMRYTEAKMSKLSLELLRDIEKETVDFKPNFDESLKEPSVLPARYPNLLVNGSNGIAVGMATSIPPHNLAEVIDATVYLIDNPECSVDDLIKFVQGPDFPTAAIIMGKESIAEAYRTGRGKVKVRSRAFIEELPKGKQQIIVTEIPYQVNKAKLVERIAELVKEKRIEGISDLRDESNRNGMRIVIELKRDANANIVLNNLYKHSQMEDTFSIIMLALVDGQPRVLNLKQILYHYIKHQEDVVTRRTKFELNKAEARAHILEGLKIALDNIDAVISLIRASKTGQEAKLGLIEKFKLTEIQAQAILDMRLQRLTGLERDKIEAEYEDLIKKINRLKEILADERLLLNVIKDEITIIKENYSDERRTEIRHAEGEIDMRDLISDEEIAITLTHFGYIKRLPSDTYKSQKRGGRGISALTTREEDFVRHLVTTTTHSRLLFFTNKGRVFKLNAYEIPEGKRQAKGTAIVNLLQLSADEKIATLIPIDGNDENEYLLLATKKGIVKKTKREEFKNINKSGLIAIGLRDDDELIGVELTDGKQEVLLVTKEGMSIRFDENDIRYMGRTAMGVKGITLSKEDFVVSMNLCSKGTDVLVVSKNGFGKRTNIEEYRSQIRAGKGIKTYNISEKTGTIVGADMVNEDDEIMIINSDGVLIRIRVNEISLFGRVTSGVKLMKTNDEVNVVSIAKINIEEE
Sequence of DNA gyrase of C. difficile (Q18C89 entry or part of it): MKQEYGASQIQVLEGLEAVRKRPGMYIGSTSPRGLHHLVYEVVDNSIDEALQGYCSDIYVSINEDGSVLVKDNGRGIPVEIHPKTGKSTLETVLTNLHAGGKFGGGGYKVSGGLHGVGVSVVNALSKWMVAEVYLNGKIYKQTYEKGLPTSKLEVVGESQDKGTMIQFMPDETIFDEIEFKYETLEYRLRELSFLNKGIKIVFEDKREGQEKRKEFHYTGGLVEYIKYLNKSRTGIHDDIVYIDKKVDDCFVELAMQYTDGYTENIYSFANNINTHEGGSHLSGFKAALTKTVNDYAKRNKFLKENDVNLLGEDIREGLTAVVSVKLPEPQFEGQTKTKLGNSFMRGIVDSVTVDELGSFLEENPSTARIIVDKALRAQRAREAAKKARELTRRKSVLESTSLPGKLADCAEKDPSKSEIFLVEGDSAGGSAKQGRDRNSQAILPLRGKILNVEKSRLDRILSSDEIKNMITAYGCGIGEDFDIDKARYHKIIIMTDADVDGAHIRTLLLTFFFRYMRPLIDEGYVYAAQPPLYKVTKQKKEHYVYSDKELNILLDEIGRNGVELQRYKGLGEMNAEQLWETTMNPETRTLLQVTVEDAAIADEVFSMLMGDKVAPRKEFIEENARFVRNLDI

With `CCc1c(Cl)c(O)c(Cl)c(O)c1C(=O)O[C@H]1[C@H](O)[C@H](OC)[C@H](OC/C2=C\C=C\C[C@H](O)/C(C)=C/[C@H](CC)[C@@H](O[C@@H]3OC(C)(C)[C@@H](OC(=O)C(C)C)[C@H](O)[C@@H]3O)/C(C)=C/C(C)=C/C[C@@H]([C@@H](C)O)OC2=O)O[C@@H]1C` [Fidaxomicin] the “mutant prevention concentration (MPC)” value (C. difficile ATCC 700057 [1]) was 8 µg/mL, the MIC90 [2] was 8 µg/mL (≈ 7.56 µM) and the MIC50 [2] was 0.063 µg/mL (≈ 0.0595 µM). For the same molecule, the MIC90 ([3]; all 62 strains) was 0.25 µg/mL (≈ 0.236 µM), the MIC50 ([3]; hypervirulent strains (n = 20)) was 0.25 µg/mL (≈ 0.236 µM) and the MIC90 ([3]; hypervirulent strains (n = 20)) was 0.25 µg/mL (≈ 0.236 µM). For the same molecule, the MIC50 [3, 14] was 0.06 µg/mL (≈ 0.0567 µM), the MIC90 [3, 14] was 0.25 µg/mL (≈ 0.236 µM) and the “Cumulative percentage of strains” value ([3]; Hyp (n = 20), MIC 0.063 μg/ml) was 0%. For the same molecule, the “Cumulative percentage of strains” value ([3]; Non-hyp (n = 42), MIC 0.008 μg/ml) was 5%, the “Cumulative percentage of strains” value ([3]; Non-hyp (n = 42), MIC 0.063 μg/ml) was 52% and the “Cumulative percentage of strains” value ([3]; Non-hyp (n = 42), MIC <0.004 μg/ml) was 0%. The MIC range ([3]; hypervirulent strains (n = 20)) was 0.125 to 0.5 µg/mL, the MIC range [3, 14] was 0.008 to 0.5 µg/mL and the MIC (C. difficile ATCC 700057 [4]; ATCC700057, agar dilution, determined for the spontaneous resistance assay) was 0.06 µg/mL (≈ 0.0567 µM). The MIC (C. difficile ATCC 700057 [4]; ATCC700057, quality control strain ATCC 700057, CLSI method) was 0.063 µg/mL (≈ 0.0595 µM), the “PAEs at 4- and 8-fold the MIC” value (C. difficile ATCC 700057 [5]; 4- and 8-fold the MIC) was 2.86 to 2.77 h and the Postantibiotic effect (C. difficile ATCC 700057 [5]; 4× MIC) was 2.86 h. For the same molecule, the Postantibiotic effect (C. difficile ATCC 700057 [5]; 8× MIC) was 2.77 h, the “oral absorption” value [6] was “minimally absorbed” and the “MBC Range” value ([7]; >99.9% reduction within 48 h) was 0.06 to 0.25 µg/mL. The “MIC range” value ([7]; broth dilution) was 0.06 to 0.25 µg/mL, the MIC90 ([7]; Clostridioides difficile, broth dilution, read-out: MIC90) was 0.125 µg/mL (≈ 0.118 µM) and the MBC ([7]; Clostridioides difficile, read-out: MBC90) was 0.25 µg/mL (≈ 0.236 µM). The MIC (C. difficile ATCC 700057 [8]; ATCC700057, pH 6) was 0.03 µg/mL (≈ 0.0284 µM), the MIC (C. difficile ATCC 700057 [8]; ATCC700057, pH 7) was 0.06 µg/mL (≈ 0.0567 µM) and the MIC (C. difficile ATCC 700057 [8]; ATCC700057, pH 8) was 0.06 µg/mL (≈ 0.0567 µM). It also gave an MIC (C. difficile ATCC 700057 [9]; ATCC700057, broth dilution, retested for the time-kill assay) of 0.03 µg/mL (≈ 0.0284 µM), an MIC (C. difficile ATCC 700057 [9]; ATCC700057, broth method, determined for the PAE assay) of 0.06 µg/mL (≈ 0.0567 µM) and an MIC (C. difficile ATCC 43255 [10]) of 0.06 µg/mL (≈ 0.0567 µM). The “50% effective dose (ED50)” value (C. difficile ATCC 43255 [11]; survival on day 20, oral once daily for 5 days, probit method) was 1.63 mg/kg/day, the “dosages with significant efficacy compared with vehicle control” value (C. difficile ATCC 43255 [11]; survival, log-rank test) was ≥ 1 mg/kg and the “Frequency of spontaneous resistance” value (C. difficile ATCC 700057 [12]; 4× MIC) was 1.47 × 10^–7. For the same molecule, the “Frequency of spontaneous resistance” value (C. difficile ATCC 700057 [12]; 16× MIC) was <9.17 × 10^–9 and the “Frequency of spontaneous resistance” value (C. difficile ATCC 700057 [12]; 64× MIC) was <9.17 × 10^–9.

With `C[C@H]1COc2c(N3CCN(C)CC3)c(F)cc3c(=O)c(C(=O)O)cn1c23` [Levofloxacin] the “activity against C. difficile isolates” value ([2]; 54 clinical isolates) was “inactive”, the MIC90 [2] was > 128 µg/mL and the MIC50 [2] was 128 µg/mL (≈ 354 µM). For the same molecule, the pIC50 [13] was 4.50.
